The values that follow come from patent US20080242869A1, “Tri(Cyclo) Substituted Amide Compounds” (priority 2004, published 2008).

This test concerns the target T1, GST-GK, derived from human liver GK (Homo sapiens, UniProt P35557).
T1 sequence (P35557 1-466 isoform P35557-2): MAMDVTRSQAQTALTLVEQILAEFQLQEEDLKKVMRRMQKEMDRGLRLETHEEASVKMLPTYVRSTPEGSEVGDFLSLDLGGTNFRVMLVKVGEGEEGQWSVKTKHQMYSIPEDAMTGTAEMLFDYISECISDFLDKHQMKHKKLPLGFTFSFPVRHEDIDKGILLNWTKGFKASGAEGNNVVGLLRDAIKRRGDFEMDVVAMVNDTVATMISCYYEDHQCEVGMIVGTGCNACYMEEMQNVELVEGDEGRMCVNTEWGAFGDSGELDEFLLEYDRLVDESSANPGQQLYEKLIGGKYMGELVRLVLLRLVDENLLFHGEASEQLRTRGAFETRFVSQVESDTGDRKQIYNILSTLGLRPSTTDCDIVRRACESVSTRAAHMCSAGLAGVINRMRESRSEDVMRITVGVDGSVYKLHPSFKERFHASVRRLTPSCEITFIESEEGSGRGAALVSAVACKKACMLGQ
The test is described as follows: In vitro GK activity: G6P production by GST-GK coupled to NADPH generation with G6PDH. In kind it is biochemical. As to conditions: 5 mM D-Glc, 30° C., OD 340 nm over 10 min. The protocol:
Using a protocol similar to that described in WO2000/58293, GK activity may be assayed by coupling the production of G6P by GST-GK to the generation of NADPH with G6PDH as the coupling enzyme.
The GK assay is performed at 30° C. in a flat bottom 96-well assay plate from Costar with a final incubation volume of 100 μL. The assay buffer contains: 25 mM Hepes buffer (pH 7.4), 12.5 mM KCl, 5 mM D-Glc, 5 mM ATP, 6.25 mM NADP, 25 mM MgCl2, 1 mM dithiothreitol, test compound or 5% DMSO, 3.0 unit/mL G6PDH, and 0.4 μL/mL GST-GK, derived from human liver GK. ATP, G6PDH, and NADP may be purchased from Roche Diagnostics. The other reagents are >98% pure and may be purchased from Kanto Chemicals. The test compounds are dissolved in DMSO, before being added to the assay buffer without ATP. This mix is preincubated in the temperature controlled chamber of a SPECTRAmax 250 microplate spectrophotometer (Molecular Devices Corporation, Sunnyvale, Calif.) for 10 min, then the reaction started by the addition of 10 μL ATP solution.
After starting the reaction, the increase in optical density (OD) at 340 nm is monitored over a 10 min incubation period as a measure of GK activity. […] The compound concentrations that produced a 50% increase in GK activity (i.e. FA1.5) are calculated. […]

As for `O=C1CC[C@H](C[C@@H](C(=O)Nc2ncc(F)s2)c2ccc(S(=O)(=O)C3CC3)cc2)C1` [Example 7, 2(R)-2-(4-Cyclopropanesulfonylphenyl)-N-(5-fluorothiazol-2-yl)-3-((R)-3-oxocyclopentyl)propionamide], the “maximum activation of GK” value is recorded as “greater than 4 fold”. Further, the EC50 (read-out: EC50 (concentration of test compound which produces 50% activation)) is less than 500 nM.
